In patent US20230416205A1, “COMPOUNDS, COMPOSITIONS, AND METHODS” (Denali Therapeutics Inc, priority 2020, published 2023):
Where two headings read alike, the source gives them in different places.

Tested on: NLRP3
Test: IL-1β secretion assay in PMA-differentiated, LPS/nigericin-stimulated THP-1 cells (384-well, ELISA read-out)
Type: cell-based, human
Method in brief: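 Secreted IL-1β quantified by capture ELISA from supernatants of PMA-differentiated THP-1 cells (30K per well). Sequence: LPS 25 ng/mL priming 2 h, compound 1 h, nigericin 2 h; dose-responses normalized between high (LPS plus 5 μM nigericin) and low (LPS alone) controls.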

[1] = Homo sapiens, THP-1, IL-1β secretion, PMA-differentiated THP-1 cells, LPS then nigericin stimulation, ELISA read at 450 nm, read-out: Activity
[2] = Table 4, IL-1β secretion, LPS/nigericin-stimulated THP-1 cells, read-out: IC50
[3] = IL-1β secretion, PMA-differentiated THP-1 cells, LPS then nigericin stimulation, ELISA read at 450 nm, read-out: Activity
[4] = Homo sapiens, THP-1, Table 4, IL-1β secretion, LPS/nigericin-stimulated THP-1 cells, read-out: IC50

Compound	IC50 [1]	IC50 [2]	IC50 [3]	IC50 [4]
O=C(CN1CC2(CC2(F)F)c2c(ccc(Br)c2F)C1=O)Nc1ncc(F)cn1 (single isomer, unassigned) [Example 288, N-(5-fluoropyrimidin-2-yl)-2-[6-bromo-1′,1′,5-trifluoro-1-oxospiro[3H-isoquinoline-4,2′-cyclopropane]-2-yl]acetamide]	10 to 15 µM	15.4 µM	–	–
O=C(CN1CC2(CC2(F)F)c2c(ccc(Br)c2F)C1=O)Nc1ncc(F)cn1 (single isomer, unassigned) [Example 289, N-(5-fluoropyrimidin-2-yl)-2-[6-bromo-1′,1′,5-trifluoro-1-oxospiro[3H-isoquinoline-4,2′-cyclopropane]-2-yl]acetamide]	–	0.027 µM	< 10 µM	–
O=C(CN1CC2(CC2(F)F)c2cc(Br)ccc2C1=O)Nc1ncc(F)cn1 (single isomer, unassigned) [Example 290, 2-[6-bromo-1′,1′-difluoro-1-oxospiro[3H-isoquinoline-4,2′-cyclopropane]-2-yl]-N-(5-fluoropyrimidin-2-yl)acetamide]	< 10 µM	3.73 µM	–	–
O=C(CN1CC2(CC2(F)F)c2cc(Br)ccc2C1=O)Nc1ncc(F)cn1 (single isomer, unassigned) [Example 291, 2-[6-bromo-1′,1′-difluoro-1-oxospiro[3H-isoquinoline-4,2′-cyclopropane]-2-yl]-N-(5-fluoropyrimidin-2-yl)acetamide]	–	0.037 µM	< 10 µM	–
O=C(CN1CC(CF)c2cc(Br)ccc2C1=O)Nc1ncc(F)cn1 (single isomer, unassigned) [Example 292, 2-[6-bromo-4-(fluoromethyl)-1-oxo-3,4-dihydroisoquinolin-2-yl]-N-(5-fluoropyrimidin-2-yl)acetamide]	< 10 µM	3.94 µM	–	–
O=C(CN1CC(CF)c2cc(Br)ccc2C1=O)Nc1ncc(F)cn1 (single isomer, unassigned) [Example 293, 2-[6-bromo-4-(fluoromethyl)-1-oxo-3,4-dihydroisoquinolin-2-yl]-N-(5-fluoropyrimidin-2-yl)acetamide]	–	0.134 µM	< 10 µM	–
O=C(CN1CC(C(F)F)c2c(ccc(Br)c2F)C1=O)Nc1ncc(F)cn1 (single isomer, unassigned) [Example 295, 2-[6-bromo-4-(difluoromethyl)-5-fluoro-1-oxo-3,4-dihydroisoquinolin-2-yl]-N-(5-fluoropyrimidin-2-yl)acetamide]	10 to 15 µM	12.8 µM	–	–
O=C(CN1CC(C(F)F)c2c(ccc(Br)c2F)C1=O)Nc1ncc(F)cn1 (single isomer, unassigned) [Example 296, 2-[6-bromo-4-(difluoromethyl)-5-fluoro-1-oxo-3,4-dihydroisoquinolin-2-yl]-N-(5-fluoropyrimidin-2-yl)acetamide]	–	0.345 µM	< 10 µM	–
O=C(CN1CC(C(F)(F)F)c2c(ccc(Br)c2F)C1=O)Nc1ncc(F)cn1 (single isomer, unassigned) [Example 297, 2-[6-bromo-5-fluoro-1-oxo-4-(trifluoromethyl)-3,4-dihydroisoquinolin-2-yl]-N-(5-fluoropyrimidin-2-yl)acetamide]	10 to 15 µM	14.4 µM	–	–
O=C(CN1CC(C(F)(F)F)c2c(ccc(Br)c2F)C1=O)Nc1ncc(F)cn1 (single isomer, unassigned) [Example 298, 2-[6-bromo-5-fluoro-1-oxo-4-(trifluoromethyl)-3,4-dihydroisoquinolin-2-yl]-N-(5-fluoropyrimidin-2-yl)acetamide]	–	0.367 µM	< 10 µM	–
O=C(CN1CC(C(F)(F)F)c2cc(Br)ccc2C1=O)Nc1ncc(F)cn1 (single isomer, unassigned) [Example 299, 2-[6-bromo-1-oxo-4-(trifluoromethyl)-3,4-dihydroisoquinolin-2-yl]-N-(5-fluoropyrimidin-2-yl)acetamide]	< 10 µM	0.096 µM	–	–
O=C(CN1CC(C(F)(F)F)c2cc(Br)ccc2C1=O)Nc1ncc(F)cn1 (single isomer, unassigned) [Example 300, 2-[6-bromo-1-oxo-4-(trifluoromethyl)-3,4-dihydroisoquinolin-2-yl]-N-(5-fluoropyrimidin-2-yl)acetamide]	–	3.43 µM	< 10 µM	–
O=C(CN1CC2(CC2)c2c(ccc(C3C[C@H]3F)c2F)C1=O)Nc1ncc(F)cn1 (single isomer, unassigned) [Example 303, 2-[5-fluoro-6-[(1r,2r)-2-fluorocyclopropyl]-1-oxospiro[3H-isoquinoline-4-1′-cyclopropane]-2-yl]-N-(5-fluoropyrimidin-2-yl)acetamide]	–	–	–	1.44 µM
O=C(CN1CC2(CC2)c2c(ccc(C3C[C@H]3F)c2F)C1=O)Nc1ncc(F)cn1 (single isomer, unassigned) [Example 304, 2-[5-fluoro-6-[(1r,2r)-2-fluorocyclopropyl]-1-oxospiro[3H-isoquinoline-4-1′-cyclopropane]-2-yl]-N-(5-fluoropyrimidin-2-yl)acetamide]	–	2.56 µM	–	–
O=C(CN1CC2(CC2)c2c(ccc(C3C[C@@H]3F)c2F)C1=O)Nc1ncc(F)cn1 (single isomer, unassigned) [Example 305, 2-[5-fluoro-6-[(1r,2s)-2-fluorocyclopropyl]-1-oxospiro[3H-isoquinoline-4,1′-cyclopropane]-2-yl]-N-(5-fluoropyrimidin-2-yl)acetamide]	–	–	–	0.662 µM
O=C(CN1CC2(CC2)c2c(ccc(C3C[C@@H]3F)c2F)C1=O)Nc1ncc(F)cn1 (single isomer, unassigned) [Example 306, 2-[5-fluoro-6-[(1r,2s)-2-fluorocyclopropyl]-1-oxospiro[3H-isoquinoline-4,1′-cyclopropane]-2-yl]-N-(5-fluoropyrimidin-2-yl)acetamide]	–	0.577 µM	–	–
O=C(CN1CC2(CC2(F)F)c2c(ccc(Br)c2F)C1=O)Nc1ncc(Cl)cn1 (single isomer, unassigned) [Example 317, 2-[6-bromo-1′,1′,5-trifluoro-1-oxospiro[3H-isoquinoline-4,2′-cyclopropane]-2-yl]-N-(5-chloropyrimidin-2-yl)acetamide]	–	8.51 µM	–	–
O=C(CN1CC2(CC2(F)F)c2c(ccc(Br)c2F)C1=O)Nc1ncc(Cl)cn1 (single isomer, unassigned) [Example 318, 2-[6-bromo-1′,1′,5-trifluoro-1-oxospiro[3H-isoquinoline-4,2′-cyclopropane]-2-yl]-N-(5-chloropyrimidin-2-yl)acetamide]	–	0.008 µM	–	–
N#Cc1cnc(NC(=O)CN2CC3(CC3(F)F)c3c(ccc(Br)c3F)C2=O)nc1 (single isomer, unassigned) [Example 319, 2-[6-bromo-1′,1′,5-trifluoro-1-oxospiro[3H-isoquinoline-4,2′-cyclopropane]-2-yl]-N-(5-cyanopyrimidin-2-yl)acetamide]	–	3.05 µM	–	–
N#Cc1cnc(NC(=O)CN2CC3(CC3(F)F)c3c(ccc(Br)c3F)C2=O)nc1 (single isomer, unassigned) [Example 320, 2-[6-bromo-1′,1′,5-trifluoro-1-oxospiro[3H-isoquinoline-4,2′-cyclopropane]-2-yl]-N-(5-cyanopyrimidin-2-yl)acetamide]	–	0.014 µM	–	–
